In one assay the test system is brains, heart, liver, muscle, and DRG of the NHPs. Put plainly: Maturation of TTM-001 and TTM-002 capsids, NGS enrichment in NHP tissues. The class given is in vivo. The conditions noted are these: NGS fold-enrichment of matured AAV capsid variants; NHP brain, RNA; relative to AAV9 control. In a few lines:
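Variants carry mutations within and flanking the loop IV peptide insert: positions 450–466 were triplet-randomized, while positions 449–466 received low-frequency point mutations. The combined pool went into two NHPs, and each peptide was scored by NGS enrichment ratio against AAV9.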
Take KTINGSGSPHSYHVNQQT: the “Fold Enrichment relative to AAV9, Brain (NHP)” value was 50.486 fold.
The same measure, in the same setting: for KSELGSGSPHSKAQNQQT the value was 55.997 fold; for KTINGSGSPHSKAQAITT, 56.924 fold.
With KTDRNSGSPHSKAQNQQT, the “Fold Enrichment relative to AAV9, Brain (NHP)” value is reported as 54.495 fold.
On the same count and under the same terms, in the case of KTINGSGSPHSKAQGHHT it was 56.559 fold; in that of KSDIGSGSPHSKAQNQQT, 57.592 fold; in that of KTINGSASPHSKAHSQQT, 55.293 fold.
On the same count and under the same terms, for KTINGSGSPHSKLQKQQT the value was 52.144 fold.

The same assay, now with this note: NHP DRG; relative to AAV9 control.
For KTINGSGSPHSYHVNQQT, the “Fold Enrichment relative to AAV9, DRG (NHP)” value is reported as 0.000 fold.
Still for that read-out and setting: for KSELGSGSPHSKAQNQQT the value was 0.000 fold.
With KTINGSGSPHSKAQAITT, the “Fold Enrichment relative to AAV9, DRG (NHP)” value was 0.000 fold.
Still for that read-out and setting: in the case of KTDRNSGSPHSKAQNQQT it was 0.000 fold.
As for KTINGSGSPHSKAQGHHT, the “Fold Enrichment relative to AAV9, DRG (NHP)” value was 0.000 fold.
Same read-out and setting: for KSDIGSGSPHSKAQNQQT the value was 0.000 fold.
Same read-out and setting: for KTINGSASPHSKAHSQQT the value was 0.000 fold.
On the same count and under the same terms, for KTINGSGSPHSKLQKQQT the value was 0.615 fold.

Staying with this assay, now noted: NHP heart; relative to AAV9 control.
Turning to KTINGSGSPHSYHVNQQT, the “Fold Enrichment relative to AAV9, Heart (NHP)” value came out at 0.056 fold.
Same read-out and setting: in the case of KSELGSGSPHSKAQNQQT it was 0.005 fold; in that of KTINGSGSPHSKAQAITT, 0.000 fold.
For the sequence KTDRNSGSPHSKAQNQQT, the “Fold Enrichment relative to AAV9, Heart (NHP)” value is 0.000 fold.
Consider KTINGSGSPHSKAQGHHT, for which the “Fold Enrichment relative to AAV9, Heart (NHP)” value is recorded as 0.000 fold.
Same read-out and setting: in the case of KSDIGSGSPHSKAQNQQT it was 0.000 fold; in that of KTINGSASPHSKAHSQQT, 0.000 fold.
Still for that read-out and setting: in the case of KTINGSGSPHSKLQKQQT it was 0.477 fold.

The assay is the same for the next values; noted with them: NHP liver, DNA; relative to AAV9 control.
In the case of KTINGSGSPHSYHVNQQT, the “Fold Enrichment relative to AAV9, Liver DNA (NHP)” value stood at 0.275 fold.
On the same count and under the same terms, in the case of KSELGSGSPHSKAQNQQT it was 0.239 fold; in that of KTINGSGSPHSKAQAITT, 0.438 fold; in that of KTDRNSGSPHSKAQNQQT, 0.241 fold.
KTINGSGSPHSKAQGHHT: the “Fold Enrichment relative to AAV9, Liver DNA (NHP)” value came out at 0.117 fold.
As to KSDIGSGSPHSKAQNQQT, the “Fold Enrichment relative to AAV9, Liver DNA (NHP)” value is given as 0.128 fold.
As for KTINGSASPHSKAHSQQT, the “Fold Enrichment relative to AAV9, Liver DNA (NHP)” value was 0.166 fold.
Regarding KTINGSGSPHSKLQKQQT, the “Fold Enrichment relative to AAV9, Liver DNA (NHP)” value came to 0.429 fold.

The assay is the same for the next values; noted with them: NHP liver, RNA; relative to AAV9 control.
Regarding KTINGSGSPHSYHVNQQT, the “Fold Enrichment relative to AAV9, Liver RNA (NHP)” value is recorded as 0.528 fold.
The same measure, in the same setting: for KSELGSGSPHSKAQNQQT the value was 0.881 fold; for KTINGSGSPHSKAQAITT, 1.239 fold.
KTDRNSGSPHSKAQNQQT: the “Fold Enrichment relative to AAV9, Liver RNA (NHP)” value was found to be 0.823 fold.
For KTINGSGSPHSKAQGHHT, the “Fold Enrichment relative to AAV9, Liver RNA (NHP)” value came out at 0.632 fold.
In the case of KSDIGSGSPHSKAQNQQT, the “Fold Enrichment relative to AAV9, Liver RNA (NHP)” value turned out to be 0.844 fold.
On to KTINGSASPHSKAHSQQT, for which the “Fold Enrichment relative to AAV9, Liver RNA (NHP)” value was determined as 0.000 fold.
Same read-out and setting: for KTINGSGSPHSKLQKQQT the value was 1.113 fold.

The same assay, now with this note: NHP muscle; relative to AAV9 control.
Take KTINGSGSPHSYHVNQQT: the “Fold Enrichment relative to AAV9, Muscle (NHP)” value is given as 0.059 fold.
Same read-out and setting: in the case of KSELGSGSPHSKAQNQQT it was 0.000 fold; in that of KTINGSGSPHSKAQAITT, 0.000 fold; in that of KTDRNSGSPHSKAQNQQT, 0.000 fold.
In the case of KTINGSGSPHSKAQGHHT, the “Fold Enrichment relative to AAV9, Muscle (NHP)” value was 0.000 fold.
The same measure, in the same setting: in the case of KSDIGSGSPHSKAQNQQT it was 0.000 fold.
Regarding KTINGSASPHSKAHSQQT, the “Fold Enrichment relative to AAV9, Muscle (NHP)” value is reported as 0.000 fold.
On the same count and under the same terms, for KTINGSGSPHSKLQKQQT the value was 1.071 fold.

The next assay deals with brain. Put plainly: Matured TTM-001 and TTM-002 variants, NGS enrichment in mouse brain. The assay is classed as in vivo, mice. The note with it: mouse brain; relative to AAV9 control.
For KTINGSGSPHSYHVNQQT, the “Fold Enrichment relative to AAV9, Brain (Mouse)” value came out at 179.489 fold.
Same read-out and setting: in the case of KSELGSGSPHSKAQNQQT it was 120.521 fold; in that of KTINGSGSPHSKAQAITT, 75.250 fold; in that of KTDRNSGSPHSKAQNQQT, 85.823 fold.
On the same count and under the same terms, in the case of KTINGSGSPHSKAQGHHT it was 71.050 fold; in that of KSDIGSGSPHSKAQNQQT, 107.342 fold; in that of KTINGSASPHSKAHSQQT, 66.252 fold.
In the case of KTINGSGSPHSKLQKQQT, the “Fold Enrichment relative to AAV9, Brain (Mouse)” value is reported as 61.833 fold.
